Assay results reported in BindingDB's records for doi:10.7270/Q29G5K5D (Cc_Pmlsc, 2007).

Target: T1, Dual specificity protein phosphatase 1 (Homo sapiens, UniProt P28562)
T1 sequence (P28562 whole entry): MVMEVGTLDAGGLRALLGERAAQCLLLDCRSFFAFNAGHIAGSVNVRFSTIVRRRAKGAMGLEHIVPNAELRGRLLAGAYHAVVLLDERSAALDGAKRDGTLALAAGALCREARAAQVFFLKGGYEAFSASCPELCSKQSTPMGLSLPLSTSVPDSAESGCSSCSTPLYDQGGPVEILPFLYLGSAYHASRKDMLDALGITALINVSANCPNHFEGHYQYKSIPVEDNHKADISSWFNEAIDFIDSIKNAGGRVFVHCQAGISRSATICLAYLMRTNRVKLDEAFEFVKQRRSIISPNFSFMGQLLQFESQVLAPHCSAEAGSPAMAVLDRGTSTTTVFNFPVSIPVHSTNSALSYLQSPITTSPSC
Experiment: MKP-1 phosphatase inhibitors, SAR follow-up, biochemical, in vitro (AID 579)
Conditions: pH 7; 23 °C

Q: For `Cn1c(N)c(C(=O)COC(=O)c2cc(C(F)(F)F)nc3ccccc23)c(=O)n(C)c1=O` [2-(trifluoromethyl)-4-quinolinecarboxylic acid [2-(4-amino-1,3-dimethyl-2,6-dioxo-5-pyrimidinyl)-2-oxoethyl] ester], which IC50 is on record?
A: Its IC50 is greater than 50 µM.

Q: Which IC50 does the source give for `Cn1c(N)c(C(=O)COC(=O)c2cc(C(F)(F)F)nc3c(C(F)(F)F)cccc23)c(=O)n(C)c1=O` [2,8-bis(trifluoromethyl)-4-quinolinecarboxylic acid [2-(4-amino-1,3-dimethyl-2,6-dioxo-5-pyrimidinyl)-2-oxoethyl] ester] here?
A: Its IC50 is greater than 50 µM.

Q: How did the IC50 turn out when `Cn1c(=O)c(C(=O)COC(=O)c2cc(-c3ccccc3)nc3ccccc23)c(N)n(Cc2ccccc2)c1=O` [2-phenyl-4-quinolinecarboxylic acid [2-[4-amino-1-methyl-2,6-dioxo-3-(phenylmethyl)-5-pyrimidinyl]-2-oxoethyl] ester] was run?
A: Its IC50 is 50 µM.
